In one test the test system is caspase-3/7. As to the kind of experiment: Time-dependence of caspase-3/7 activation. In kind it is cell-based. As to conditions: HL-60 cells, time after treatment.
The target in the next test is T1, hACC2 (Homo sapiens, UniProt O00763).
T1 construct: expressed in transfected cells; host or cells: Saccharomyces cerevisiae
As to conditions: reference ACC inhibitor; cited from earlier work.

The next test concerns glycolysis. The test can be described thus: Lactate production in cell culture medium. In kind it is cell-based. As for the experimental part: (§1) A high-throughput assay was developed for identification of new inhibitors of glycolysis. The effect of the pyrrolidinone library on intracellular ATP level of A549 cells was tested in either the presence or absence of antimycin A (inhibitor of mitochondrial electron-transport chain). […] Initial hits were further verified by evaluating their effects on lactate production. Since lactate is a toxic end-product of glycolysis effluxed to the intercellular space, treatment of cells with glycolytic inhibitors should lead to decreased levels of lactate in cell culture medium.

For test [1], the system named is cellular glucose consumption. The test can be described thus: Cellular glucose consumption. In kind it is cell-based.
In the next test the test system is CHO-K1 cells. The test can be described thus: Cell proliferation, CHO-K1. Format: cell-based. The procedure: (§2) Since respiration and glycolysis are tightly coupled in eukaryotic cells, a combination of suppressors of respiration with inhibitors of glycolysis were tested for cytotoxic phenotype.
The subject of test [2] is A549 cells. The test can be described thus: Cancer cell proliferation, A549. In kind it is cell-based. The procedure: as §2
A further test deals with cells. As to the kind of experiment: Cell cycle arrest. Format: cell-based.
For test [3], the system named is A549 cells. The test can be described thus: Intracellular ATP level of A549 cells with or without antimycin A. As to conditions: presence versus absence of antimycin A (10 nM). Format: cell-based. The procedure:
as §1

The next test has as its system tumor cells. The test can be described thus: Sensitisation of tumor cells to 2-deoxyglucose. In kind it is cell-based. The procedure: as §2
The subject of another test is U-87MG glioma cells. As to the kind of experiment: Combination of respiration suppressor and glycolysis inhibitor, cytotoxicity. In kind it is cell-based. As to conditions: in combination with leucascandrolide A. As for the experimental part: as §2

T1 sequence (O00763 whole entry): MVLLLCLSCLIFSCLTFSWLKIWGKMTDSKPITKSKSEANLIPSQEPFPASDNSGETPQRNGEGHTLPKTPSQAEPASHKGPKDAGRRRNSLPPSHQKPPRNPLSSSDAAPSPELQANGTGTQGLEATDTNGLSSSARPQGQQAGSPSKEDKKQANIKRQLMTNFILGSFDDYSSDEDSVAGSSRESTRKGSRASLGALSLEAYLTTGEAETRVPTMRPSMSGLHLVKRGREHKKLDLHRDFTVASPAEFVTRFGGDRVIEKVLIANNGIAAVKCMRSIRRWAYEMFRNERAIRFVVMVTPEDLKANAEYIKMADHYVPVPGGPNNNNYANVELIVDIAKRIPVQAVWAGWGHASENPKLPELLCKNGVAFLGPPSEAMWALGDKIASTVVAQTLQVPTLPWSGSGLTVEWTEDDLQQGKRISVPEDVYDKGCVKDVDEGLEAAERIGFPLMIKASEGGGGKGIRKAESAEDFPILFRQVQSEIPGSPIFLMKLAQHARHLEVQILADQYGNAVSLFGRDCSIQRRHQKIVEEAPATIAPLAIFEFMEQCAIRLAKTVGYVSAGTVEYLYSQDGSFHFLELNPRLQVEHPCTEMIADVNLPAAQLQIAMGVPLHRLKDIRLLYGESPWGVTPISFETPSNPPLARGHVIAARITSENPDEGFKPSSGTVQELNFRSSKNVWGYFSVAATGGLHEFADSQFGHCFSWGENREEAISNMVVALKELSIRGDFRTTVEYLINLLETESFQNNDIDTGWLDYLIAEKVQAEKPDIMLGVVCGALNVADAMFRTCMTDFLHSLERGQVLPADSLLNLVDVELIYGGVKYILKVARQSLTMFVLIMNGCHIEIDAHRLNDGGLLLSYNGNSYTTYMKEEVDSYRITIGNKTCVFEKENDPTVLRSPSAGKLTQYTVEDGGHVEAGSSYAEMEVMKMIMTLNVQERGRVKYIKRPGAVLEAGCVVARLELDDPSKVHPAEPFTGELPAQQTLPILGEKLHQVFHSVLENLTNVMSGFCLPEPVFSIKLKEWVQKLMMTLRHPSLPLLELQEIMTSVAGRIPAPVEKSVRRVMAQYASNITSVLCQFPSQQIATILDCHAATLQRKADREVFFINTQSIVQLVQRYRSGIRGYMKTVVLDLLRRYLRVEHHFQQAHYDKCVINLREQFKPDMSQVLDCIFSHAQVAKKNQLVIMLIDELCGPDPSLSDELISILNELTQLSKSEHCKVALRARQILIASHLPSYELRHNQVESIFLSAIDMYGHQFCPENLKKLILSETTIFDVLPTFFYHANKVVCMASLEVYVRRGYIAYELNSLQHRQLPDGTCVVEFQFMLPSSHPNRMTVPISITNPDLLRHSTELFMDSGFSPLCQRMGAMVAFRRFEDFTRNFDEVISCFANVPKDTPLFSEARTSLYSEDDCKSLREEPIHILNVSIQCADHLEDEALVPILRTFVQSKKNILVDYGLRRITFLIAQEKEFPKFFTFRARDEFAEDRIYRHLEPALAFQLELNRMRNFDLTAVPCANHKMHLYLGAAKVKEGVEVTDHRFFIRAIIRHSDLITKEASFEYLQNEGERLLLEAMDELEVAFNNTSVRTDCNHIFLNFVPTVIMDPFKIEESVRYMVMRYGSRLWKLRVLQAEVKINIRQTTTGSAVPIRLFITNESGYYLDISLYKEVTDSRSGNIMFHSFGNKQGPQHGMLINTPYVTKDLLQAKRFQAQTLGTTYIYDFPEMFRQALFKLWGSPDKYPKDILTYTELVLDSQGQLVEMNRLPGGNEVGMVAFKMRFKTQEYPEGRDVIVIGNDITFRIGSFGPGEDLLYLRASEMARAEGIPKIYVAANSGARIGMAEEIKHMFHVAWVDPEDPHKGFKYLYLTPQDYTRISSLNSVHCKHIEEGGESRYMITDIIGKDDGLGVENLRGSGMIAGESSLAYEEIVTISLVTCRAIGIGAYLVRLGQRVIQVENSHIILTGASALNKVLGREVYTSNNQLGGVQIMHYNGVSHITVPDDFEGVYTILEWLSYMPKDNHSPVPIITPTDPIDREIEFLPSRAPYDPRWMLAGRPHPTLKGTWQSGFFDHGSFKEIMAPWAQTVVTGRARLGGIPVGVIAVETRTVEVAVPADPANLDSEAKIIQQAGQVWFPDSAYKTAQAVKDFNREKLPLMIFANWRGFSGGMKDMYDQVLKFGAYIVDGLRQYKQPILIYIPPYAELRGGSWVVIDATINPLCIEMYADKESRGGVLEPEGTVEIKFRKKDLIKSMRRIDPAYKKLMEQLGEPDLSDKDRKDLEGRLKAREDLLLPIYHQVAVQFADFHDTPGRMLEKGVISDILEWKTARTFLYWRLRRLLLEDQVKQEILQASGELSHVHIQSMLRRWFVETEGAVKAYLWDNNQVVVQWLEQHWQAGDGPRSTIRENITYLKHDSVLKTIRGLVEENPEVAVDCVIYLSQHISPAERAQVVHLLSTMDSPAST

With `CN[C@@H]1C[C@H]2O[C@@](C)([C@@H]1OC)n1c3ccccc3c3c4c(c5c6ccccc6n2c5c31)C(=O)NC4` [staurosporine], the “caspase-3/7 activation over time” value with caspase-3/7 is “increased activity between 3 and 6 hours after treatment, after which activity decreased”.

As for `CC(C#Cc1cnc(Oc2ccc(Oc3ccccc3)cc2)s1)N(O)C(N)=O` (stereo not shown) [Example A-80040], at hACC2, the ACC2 specificity result is reported as “certain level of ACC2 specificity”.

Consider `COC(=O)[C@@]12CCCCC/C=C\1N(Cc1cccc3ccccc13)C(=O)[C@H]2CC(=O)N1CCN(C(=O)c2ccco2)CC1` [Example P9E11], for which the lactate production result with glycolysis is “inhibited lactate production”. Besides, the cellular glucose consumption result in test [1] is “rapidly inhibited cellular glucose consumption”. The “activity profile compared with cytochalasin B” value in [1] (cytochalasin B is an established inhibitor of glucose transport) was “essentially identical activity profile to cytochalasin B”. Besides, the “effect on cell proliferation” value in the test on CHO-K1 cells is reported as “cytostatic effect”. For the same compound, in the test on A549 cells [2], the “effect on cancer cell proliferation” value is reported as “cytostatic effect”. The cell cycle arrest result in the test with cells is given as “arrested cells in G1 phase”. Besides, the “suppression of ATP production” value in the test with A549 cells [3] is “suppressed ATP production more efficiently in the presence of antimycin A”.

Consider rhodamine 123, for which the “sensitisation of tumor cells to 2-deoxyglucose” value in the test on tumor cells was “hypersensitized tumor cells to treatment with 2-deoxyglucose”.

`COC(=O)[C@@]12CCCCC=C1N(CCC1=CCCCC1)C(=O)[C@H]2CC(=O)NCc1ccc(OC)c(OC)c1` [Example P8A7]: in the test on glycolysis, the lactate production entry is “inhibited lactate production”. In addition, the “effect on cell proliferation” value with CHO-K1 cells is listed as “cytostatic effect”. In the test on U-87MG glioma cells, the “cell death on combined treatment” value was “severe cell death”. Further, the “effect on cancer cell proliferation” value with A549 cells [2] is “cytostatic effect”. Moreover, in the test on cells, the cell cycle arrest result was “arrested cells in G1 phase”. The “suppression of ATP production” value in the test with A549 cells [3] is on record as “suppressed ATP production more efficiently in the presence of antimycin A”.
